pIC50: −log10 of the molar value. Counter-ions that a name gives are not always drawn.
Experiments:
[1] = biological target: T1, NLRP3 (Homo sapiens, UniProt Q96P20); assay: THP-1 cells pyroptosis assay (LPS priming, nigericin, resazurin readout); assay type: cell-based; design: Seed THP-1 cells (25,000 cells/well) containing 1.0 μg/ml LPS; host or cells: THP-1 cells, LPS-primed, nigericin-stimulated; conditions: 1 μg/ml LPS, 3 h compound, 5 μM nigericin 1 hr
Method: THP-1 cells (ATCC #TIB-202) were grown in RPMI containing L-glutamine (Gibco #11835) supplemented with 1 mM sodium pyruvate (Sigma #S8636) and penicillin (100 units/ml)/streptomycin (0.1 mg/ml) (Sigma #P4333) in 10% Fetal Bovine Serum (FBS) (Sigma #F0804). The cells were routinely passaged and grown to confluency (˜10^6 cells/ml). On the day of the experiment, THP-1 cells were harvested and resuspended into RPMI medium (without FBS). The cells were then counted and viability (>90%) checked by Trypan blue (Sigma #T8154). Appropriate dilutions were made to give a concentration of 625,000 cells/ml. To this diluted cell solution was added LPS (Sigma #L4524) to give a 1 μg/ml Final Assay Concentration (FAC). 40 μl of the final preparation was aliquoted into each well of a 96-well plate. The plate thus prepared was used for compound screening.
The following method step-by-step assay was followed for compound screening. • 1. Seed THP-1 cells (25,000 cells/well) containing 1.0 μg/ml LPS in 40 μl of RPMI medium (without FBS) in 96-well, black walled, clear bottom cell culture plates coated with poly-D-lysine (VWR #734-0317) • 2. Add 5 μl compound (8 points half-log dilution, with 10 μM top dose) or vehicle (DMSO 0.1% FAC) to the appropriate wells • 3. Incubate for 3 hours at 37° C., 5% CO2 • 4. Add 5 μl nigericin (Sigma #N7143) (FAC 5 μM) to all wells • 5. Incubate for 1 hr at 37° C., 5% CO2 • 6. At the end of the incubation period, spin plates at 300×g for 3 mins and remove supernatant • 7. Then add 50 μl of resazurin (Sigma #R7017) (FAC 100 μM resazurin in RPMI medium without FBS) and incubate plates for a further 1-2 hours at 37° C. and 5% CO2 • 8. Plates were read in an Envision reader at Ex 560 nm and Em 590 nm • 9. IC50 data is fitted to a non-linear regression equation (log inhibitor vs response-variable slope 4-parameters)

[2] = biological target: T1, NLRP3; assay: Human whole blood IL-1β release assay (LPS, nigericin, AlphaLisa); assay type: cell-based; design: Plate out 80 μl of whole blood containing 1 μg/ml of LPS; from tissue; host or cells: human whole blood from healthy donors, LPS-primed, nigericin-stimulated; conditions: 1 μg/ml LPS, 3 h compound, 10 μM nigericin 1 hr, IL-1β in supernatant, read-out: Human whole blood IB-1β Assay IC50
Method: For systemic delivery, the ability to inhibit NLRP3 when the compounds are present within the bloodstream is of great importance. For this reason, the NLRP3 inhibitory activity of a number of compounds in human whole blood was investigated in accordance with the following protocol.
Human whole blood in Li-heparin tubes was obtained from healthy donors from a volunteer donor panel. • 1. Plate out 80 μl of whole blood containing 1 μg/ml of LPS in 96-well, clear bottom cell culture plate (Corning #3585) • 2. Add 10 μl compound (8 points half-log dilution with 10 μM top dose) or vehicle (DMSO 0.10% FAC) to the appropriate wells • 3. Incubate for 3 hours at 37° C., 5% CO2 • 4. Add 10 μl nigericin (Sigma #N7143) (10 μM FAC) to all wells • 5. Incubate for 1 hr at 37° C., 5% CO2 • 6. At the end of the incubation period, spin plates at 300×g for 5 mins to pellet cells and remove 20 μl of supernatant and add to 96-well v-bottom plates for IL-1β analysis (note: these plates containing the supernatants can be stored at −80° C. to be analysed at a later date) • 7. IL-1β was measured according to the manufacturer protocol (Perkin Elmer-AlphaLisa IL-1 Kit AL220F-5000) • 8. IC50 data is fitted to a non-linear regression equation (log inhibitor vs response-variable slope 4-parameters)

T1 sequence (Q96P20 whole entry): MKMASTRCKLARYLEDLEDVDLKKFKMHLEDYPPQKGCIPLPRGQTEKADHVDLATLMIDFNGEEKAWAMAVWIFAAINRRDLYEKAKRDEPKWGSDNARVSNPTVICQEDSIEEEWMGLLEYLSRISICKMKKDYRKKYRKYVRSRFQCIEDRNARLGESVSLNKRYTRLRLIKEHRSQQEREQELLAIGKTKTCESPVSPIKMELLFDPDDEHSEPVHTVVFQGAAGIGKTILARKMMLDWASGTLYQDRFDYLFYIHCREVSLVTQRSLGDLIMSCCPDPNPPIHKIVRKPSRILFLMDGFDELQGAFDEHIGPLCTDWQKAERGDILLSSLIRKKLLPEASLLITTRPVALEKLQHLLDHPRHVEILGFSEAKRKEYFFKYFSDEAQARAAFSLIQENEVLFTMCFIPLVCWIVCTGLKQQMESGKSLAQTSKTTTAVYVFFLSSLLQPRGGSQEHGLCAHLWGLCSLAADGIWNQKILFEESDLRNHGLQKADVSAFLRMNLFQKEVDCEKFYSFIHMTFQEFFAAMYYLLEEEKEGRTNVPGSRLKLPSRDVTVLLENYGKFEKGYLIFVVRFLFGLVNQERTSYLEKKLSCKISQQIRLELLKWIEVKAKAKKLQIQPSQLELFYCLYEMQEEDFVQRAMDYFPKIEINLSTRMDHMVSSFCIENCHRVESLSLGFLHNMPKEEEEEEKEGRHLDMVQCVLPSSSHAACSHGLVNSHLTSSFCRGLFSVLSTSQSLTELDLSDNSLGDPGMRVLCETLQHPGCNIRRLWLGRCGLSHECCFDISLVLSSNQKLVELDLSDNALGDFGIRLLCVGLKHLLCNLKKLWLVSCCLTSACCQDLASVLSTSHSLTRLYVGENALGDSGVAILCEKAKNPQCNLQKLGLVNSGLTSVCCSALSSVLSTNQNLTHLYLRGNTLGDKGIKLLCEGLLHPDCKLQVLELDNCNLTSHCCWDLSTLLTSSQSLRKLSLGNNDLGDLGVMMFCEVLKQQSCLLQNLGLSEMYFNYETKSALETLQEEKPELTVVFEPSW

`CCN1CCCC(Nc2nnc(-c3ccc(C(F)(F)F)cc3O)c3ccsc23)C1` (racemic) [Example 1, (rac)-2-[7-[(1-Ethyl-3-piperidyl)amino]thieno[2,3-d]pyridazin-4-yl]-5(trifluoromethyl)phenol; formic acid] showed a pIC50 [1] of 8.80 and a pIC50 [2] of 10.06.

`CCN1CCCC(Nc2nnc(-c3ccc(C(F)(F)F)cc3O)c3sccc23)C1` (racemic) [Example 2, (rac)-2-[4-[(1-Ethyl-3-piperidyl)amino]thieno[2,3-d]pyridazin-7-yl]-5 (trifluoromethyl)phenol; formic acid] showed a pIC50 [1] of 8.46 and a pIC50 [2] of 9.46.

Molecule `CCN1CCCC(Nc2nnc(-c3ccc(C(F)(F)F)cc3)c3ccsc23)C1` (racemic) [Example 3, (rac)-N-(1-ethyl-3-piperidyl)-4-[4-(trifluoromethyl)phenyl]thieno[2,3-d]pyridazin-7-amine] has a pIC50 [1] of 7.24 and a pIC50 [2] of 10.04.

With `CCN1CCCC(Nc2nnc(-c3ccc(C(F)(F)F)cc3)c3sccc23)C1` (racemic) [Example 4, (rac)-N-(1-ethyl-3-piperidyl)-7-[4-(trifluoromethyl)phenyl]thieno[2,3-d]pyridazin-4-amine] the pIC50 [1] was 7.28 and the pIC50 [2] was 9.48.

With `CCN1CCC[C@@H](Nc2nnc(-c3ccc(C(F)(F)F)cc3O)c3c2ccn3C)C1` [Example 5-HCl, 2-[4-[[(3R)-1-Ethyl-3-piperidyl]amino]-1-methyl-pyrrolo[2,3-d]pyridazin-7-yl]-5-(trifluoromethyl)phenol; hydrochloride] the pIC50 [1] was 7.94.

With `CCN1CCC[C@@H](Nc2nnc(-c3ccc(C(F)(F)F)cc3O)c3c2ccn3C)C1` [Example 5-TFA, 2-[4-[[(3R)-1-ethyl-3-piperidyl]amino]-1-methyl-pyrrolo[2,3-d]pyridazin-7-yl]-5-(trifluoromethyl)phenol; 2,2,2-trifluoroacetic acid] the pIC50 [1] was 7.91 and the pIC50 [2] was 10.55.

In the case of `CCN1CCC[C@@H](Nc2nnc(-c3ccc(C(F)(F)F)cc3O)c3c2cnn3C)C1` [Example 6, 2-[4-[[(3R)-1-Ethyl-3-piperidyl]amino]-1-methyl-pyrazolo[3,4-d]pyridazin-7-yl]-5-(trifluoromethyl)phenol; 2,2,2-trifluoroacetic acid], the pIC50 [1] was 8.46 and the pIC50 [2] was 10.55.

`CCN1CCC[C@@H](Nc2nnc(-c3ccc(C(F)(F)F)cc3O)c3occc23)C1` [Example 7, 2-[4-[[(3R)-1-ethyl-3-piperidyl]amino]furo[2,3-d]pyridazin-7-yl]-5-(trifluoromethyl)phenol] showed a pIC50 [1] of 8.04 and a pIC50 [2] of 9.23.

For `CCN1CCC[C@@H](Nc2nnc(-c3ccc(C(F)(F)F)cc3O)c3cnn(C)c23)C1` [Example 9, 2-[7-[[(3R)-1-Ethyl-3-piperidyl]amino]-1-methyl-pyrazolo[3,4-d]pyridazin-4-yl]-5-(trifluoromethyl)phenol], the pIC50 [1] was 8.57 and the pIC50 [2] was 9.66.

Molecule `CCN1CCC[C@@H](Nc2nnc(-c3ccc(OC(F)(F)F)cc3O)c3c2cnn3C)C1` [Example 10, 2-[4-[[(3R)-1-Ethyl-3-piperidyl]amino]-1-methyl-pyrazolo[3,4-d]pyridazin-7-yl]-5-(trifluoromethoxy)phenol; 2,2,2-trifluoroacetic acid] has a pIC50 [1] of 8.64 and a pIC50 [2] of 10.62.

`Cn1ncc2c(N[C@@H]3CCCC[C@H]3O)nnc(-c3ccc(C(F)(F)F)cc3O)c21` [Example 11, 2-[4-[[(1R,2R)-2-Hydroxycyclohexyl]amino]-1-methyl-pyrazolo[3,4-d]pyridazin-7-yl]-5-(trifluoromethyl)phenol; 2,2,2-trifluoroacetic acid] gave a pIC50 [1] of 7.12.

In the case of `CCN1CCC[C@@H](Nc2nnc(-c3ccc(Cl)cc3O)c3c2cnn3C)C1` [Example 12, 5-Chloro-2-[1-methyl-4-[[(3R)-1-ethyl-3-piperidyl]amino]pyrazolo[3,4-d]pyridazin-7-yl]phenol; 2,2,2-trifluoroacetic acid], the pIC50 [1] was 8.66 and the pIC50 [2] was 10.85.

In the case of `CCN1CCC[C@@H](Nc2nnc(-c3ccc(C(F)(F)F)cc3O)c3onc(C)c23)C1` [Example 13, 2-[4-[[(3R)-1-Ethyl-3-piperidyl]amino]-3-methyl-isoxazolo[4,5-d]pyridazin-7-yl]-5-(trifluoromethyl)phenol], the pIC50 [1] was 7.74 and the pIC50 [2] was 8.59.

Work on `CCN1CCC[C@@H](Nc2nnc(-c3c(C)cc(C(F)(F)F)cc3O)c3[nH]ncc23)C1` [Example 14, 2-[4-[[(3R)-1-ethyl-3-piperidyl]amino]-1H-pyrazolo[3,4-d]pyridazin-7-yl]-3-methyl-5-(trifluoromethyl)phenol; 2,2,2-trifluoroacetic acid] yielded a pIC50 [1] of 8.11 and a pIC50 [2] of 9.95.

Work on `CCN1CCC[C@@H](Nc2nnc(-c3c(O)cc(C(F)(F)F)cc3F)c3c2cnn3C)C1` [Example 15, 2-[4-[[(3R)-1-Ethyl-3-piperidyl]amino]-1-methyl-pyrazolo[3,4-d]pyridazin-7-yl]-3-fluoro-5-(trifluoromethyl)phenol] yielded a pIC50 [1] of 8.07 and a pIC50 [2] of 9.63.

In the case of `Cn1ncc2c(N[C@H]3C[C@@](C)(O)C3)nnc(-c3ccc(C(F)(F)F)cc3O)c21` [Example 16, 2-[4-[(3-Hydroxy-3-methyl-cyclobutyl)amino]-1-methyl-pyrazolo[3,4-d]pyridazin-7-yl]-5-(trifluoromethyl)phenol], the pIC50 [1] was 6.44.

For `CCN1CCC[C@@H](Nc2nnc(-c3ccc4c(c3O)CCO4)c3c2cnn3C)C1` [Example 17, 5-[4-[[(3R)-1-Ethyl-3-piperidyl]amino]-1-methyl-pyrazolo[3,4-d]pyridazin-7-yl]-2,3-dihydrobenzofuran-4-ol], the pIC50 [1] was 8.44 and the pIC50 [2] was 10.82.

For `CCN1CCC[C@@H](Nc2nnc(-c3ccc4c(c3O)CC4)c3c2cnn3C)C1` [Example 18, 3-[4-[[(3R)-1-Ethyl-3-piperidyl]amino]-1-methyl-pyrazolo[3,4-d]pyridazin-7-yl]bicyclo[4.2.0]octa-1(6),2,4-trien-2-ol], the pIC50 [1] was 8.66 and the pIC50 [2] was 10.48.

Molecule `CCN1C[C@@H](O)C[C@@H](Nc2nnc(-c3ccc4c(c3O)CCO4)c3c2cnn3C)C1` [Example 19, (3S,5R)-1-Ethyl-5-[[7-(4-hydroxy-2,3-dihydrobenzofuran-5-yl)-1-methyl-pyrazolo[3,4-d]pyridazin-4-yl]amino]piperidin-3-ol] has a pIC50 [1] of 7.33 and a pIC50 [2] of 9.52.
